According to patent publication US20080070868A1, “Novel Thiazole Inhibitors of Fructose 1,6-bisphosphatase” (Metabasis Therapeutics, Inc., priority 2004, published 2008):

tested on: Sprague-Dawley rats; experiment: Glucose lowering following oral administration to the fasted, normal rat; assay type: in vivo; details: maximum lowering relative to saline controls, 10 mg/kg oral, 18-h fasted rats
Method: Compounds were administered by oral gavage to 18-h fasted, Sprague-Dawley rats (250-300 g, n=3/4/group) at a dose of 10 mg/kg. Phosphonic acids (active moieties) were prepared in deionized water, and the solution adjusted to neutrality with sodium hydroxide. Prodrugs were dissolved in polyethylene glycol (mw 400). Blood samples were taken via tail vein nick immediately prior to dosing and at 1 h intervals thereafter. Blood glucose was analyzed by means of a HemoCue glucose analyzer (HemoCue Inc., Mission Viejo, Calif.). The table below indicates the maximum % glucose lowering achieved relative to control animals dosed with saline.

SMILES	inhibition in vivo at 10 mg/kg
CCOC(=O)C(C)(C)NP(=O)(NC(C)(C)C(=O)OCC)c1ccc(-c2nc(N)sc2C(=O)C(CC)CC)o1 [Compound 2.23]	12%
CCOC(=O)[C@H](C)NP(=O)(N[C@@H](C)C(=O)OCC)c1ccc(-c2nc(N)sc2C(=O)C(C)(CC)CC)o1 [Compound 2.7, 2-amino-5-(2-ethyl-2-methylbutyryl)-4-{[5-(N,N′-((S)-1-ethoxycar-bonyl)ethyl)phosphonamido]furan-2-yl}thiazole]	10%
CCOC(=O)C(C)(C)NP(=O)(NC(C)(C)C(=O)OCC)c1ccc(-c2nc(N)sc2C(=O)C(C)(C)CC)o1 [Compound 2.9]	24%
CCC(CC)C(=O)c1sc(N)nc1-c1ccc(P(=O)(OCOC(=O)C(C)(C)C)OCOC(=O)C(C)(C)C)o1 [Compound 8.2, 2-amino-5-(2-ethylbutyryl)-4-{[5-(O,O′-bis(pivalyloxymethyl)-phosphono)]-furan-2-yl}thiazole]	10%
CCOC(=O)SCCOP(=O)(OCCSC(=O)OCC)c1ccc(-c2nc(N)sc2C(=O)C(C)(C)C)o1 [Compound 6.6]	4%
CC(C)(C)C(=O)c1sc(N)nc1-c1ccc(P(=O)(OCCSC(=O)c2ccccc2)OCCSC(=O)c2ccccc2)o1 [Compound 6.5]	9%
CCOC(=O)OCOP(=O)(OCOC(=O)OCC)c1ccc(-c2nc(N)sc2C(=O)C(C)(C)C)o1 [Compound 8.3, 2-amino-5-(2,2-dimethylpropionyl)-4-{[5-(O,O′-bis(ethoxycarbonyl-oxymethyl)phosphono)]furan-2-yl}thiazole]	24%
CC(C)(C)C(=O)c1sc(N)nc1-c1ccc(P2(=O)OCC[C@@H](c3cccc(Cl)c3)O2)o1 (stereo partly drawn) [Compound 7.1, (cis)-2-amino-5-(2,2-dimethylpropionyl)-4-{[5-(4-(3-chlorophenyl)-2-oxo-1,3,2-phosphorinan-2-yl)]furan-2-yl}thiazole]	70%
CCOC(=O)[C@H](C)NP(=O)(N[C@@H](C)C(=O)OCC)c1ccc(-c2nc(N)sc2C(=O)C(C)(C)CC)o1 [Compound 2.10, 2-amino-5-(2,2-dimethylbutyryl)-4-{[5-(N,N′-((S)-1-ethoxycarbonyl)-ethyl)phosphonamido]furan-2-yl}thiazole]	12%
CC(C)OC(=O)C(C)(C)NP(=O)(NC(C)(C)C(=O)OC(C)C)c1ccc(-c2nc(N)sc2C(=O)c2cccc(F)c2)o1 [Compound 2.28]	10%
CCOC(=O)C(C)(C)NP(=O)(Oc1ccc2c(c1)OCO2)c1ccc(-c2nc(N)sc2C(=O)C(C)(C)C)o1 (stereo not shown) [Compound 5.3]	51%
CCC(CC)C(=O)c1sc(N)nc1-c1ccc(P(=O)(OCCSC(=O)c2ccccc2)OCCSC(=O)c2ccccc2)o1 [Compound 6.2]	3%
Cc1ccccc1C(=O)c1sc(N)nc1-c1ccc(P(=O)(N[C@@H](C)C(=O)OC(C)C)N[C@@H](C)C(=O)OC(C)C)o1 [Compound 2.22, 2-amino-5-(2-methylbenzoyl)-4-{[5-(N,N′-((S)-1-isopropyl-oxycarbonyl)ethyl)-phosphonamido]furan-2-yl}thiazole]	9%
CCOC(=O)COP(=O)(N[C@@H](C)C(=O)OC(C)C)c1ccc(-c2nc(N)sc2C(=O)C(C)(C)C)o1 (stereo partly drawn) [Compound 5.6, 2-amino-5-(2,2-dimethylpropionyl)-4-{2-[5-(N-((S)-1-isopropyloxy-carbonyl)ethyl)-O-(ethoxycarbonylmethyl)monophosphonamido]furanyl}-thiazole]	4%
CCOC(=O)C(C)(C)NP(=O)(NC(C)(C)C(=O)OCC)c1ccc(-c2nc(N)sc2C(=O)c2cccc(F)c2)o1 [Compound 2.27]	6%
CCOC(=O)C(C)(C)NP(=O)(NC(C)(C)C(=O)OCC)c1ccc(-c2nc(N)sc2C(=O)C2CCC2)o1 [Compound 2.29]	12%
CC(C)(C)C(=O)OCOP(=O)(OCOC(=O)C(C)(C)C)c1ccc(-c2nc(N)sc2C(=O)C(C)(C)C)o1 [Compound 8.4, 2-amino-5-(2,2-dimethylpropionyl)-4-{[5-(O,O′-bis(pivalyloxymethyl)phosphono)]furan-2-yl}thiazole]	6%
CCOC(=O)[C@H](C)NP(=O)(N[C@@H](C)C(=O)OCC)c1ccc(-c2nc(N)sc2C(=O)C(CC)CC)o1 [Compound 2.24, 2-amino-5-(2-ethylbutyryl)-4-{[5-(N,N′-((S)-1′-ethyl-oxycarbonyl)ethyl)-phosphonamido]furan-2-yl}thiazole]	19%
Cc1ccc(C(=O)c2sc(N)nc2-c2ccc(P(=O)(NC(C)(C)C(=O)OC(C)C)NC(C)(C)C(=O)OC(C)C)o2)cc1 [Compound 2.20]	6%
CC(C)(C)C(=O)c1sc(N)nc1-c1ccc(P2(=O)OCC[C@H](c3cccc(Cl)c3)O2)o1 (stereo partly drawn) [Compound 7.2, (trans)-2-amino-5-(2,2-dimethylpropionyl)-4-{[5-(4-(3-chlorophenyl)-2-oxo-1,3,2-phosphorinan-2-yl)]furan-2-yl}thiazole]	3%

SMILES	inhibition in vivo at 10 mg/kg
CCC(C)(C)C(=O)c1sc(N)nc1-c1ccc(P(=O)(NCC(=O)OC(C)(C)C)NCC(=O)OC(C)(C)C)o1 [Compound 2.12, 2-amino-5-(2,2-dimethylbutyryl)-4-{[5-(N,N′-tert-butyloxycarbonyl-methyl)phosphonamido]furan-2-yl}thiazole]	10%
Cc1ccccc1C(=O)c1sc(N)nc1-c1ccc(P(=O)(NC(C)(C)C(=O)OC(C)C)NC(C)(C)C(=O)OC(C)C)o1 [Compound 2.21]	9%
CC(C)OC(=O)[C@H](C)NP(=O)(N[C@@H](C)C(=O)OC(C)C)c1ccc(-c2nc(N)sc2C(=O)c2cccc(F)c2)o1 [Compound 2.18, 2-amino-5-(3-fluorobenzoyl)-4-{[5-(N,N′-((S)-1-isopropyl-oxycarbonyl)ethyl)-phosphonamido]furan-2-yl}thiazole]	13%
CCC(CC)C(=O)c1sc(N)nc1-c1ccc(P(=O)(N[C@@H](C)C(=O)OC(C)C)N[C@@H](C)C(=O)OC(C)C)o1 [Compound 2.26, 2-amino-5-(2-ethylbutyryl)-4-{[5-(N,N′-((S)-1-isopropyl-oxycarbonyl)ethyl)-phosphonamido]furan-2-yl}thiazole]	16%
CCOC(=O)COP(=O)(N[C@@H](C)C(=O)OCC)c1ccc(-c2nc(N)sc2C(=O)C(C)(C)C)o1 (stereo partly drawn) [Compound 5.8, 2-amino-5-(2,2-dimethylpropionyl)-4-{2-[5-(N-((S)-1-ethoxy-carbonyl)ethyl)-O-(ethoxycarbonylmethyl)monophosphonamido]furanyl}-thiazole]	10%
CCOC(=O)C(C)(C)NP(=O)(NC(C)(C)C(=O)OCC)c1ccc(-c2nc(N)sc2C(=O)c2ccccc2C)o1 [Compound 2.15]	8%
CCOC(=O)[C@H](C)NP(=O)(N[C@@H](C)C(=O)OCC)c1ccc(-c2nc(N)sc2C(=O)c2ccccc2C)o1 [Compound 2.14, 2-amino-5-(2-methylbenzoyl)-4-{[5-(N,N′-((S)-1-ethyl-oxycarbonyl)ethyl)-phosphonamido]furan-2-yl}thiazole]	20%
CCOC(=O)COP(=O)(NC(C)(C)C(=O)OCC)c1ccc(-c2nc(N)sc2C(=O)C2CCC2)o1 (stereo not shown) [Compound 5.4]	16%
CCC(CC)C(=O)c1sc(N)nc1-c1ccc(P(=O)(NC(C)(C)C(=O)OC(C)C)NC(C)(C)C(=O)OC(C)C)o1 [Compound 2.25]	10%
CCOC(=O)[C@H](C)NP(=O)(Oc1ccc2c(c1)OCO2)c1ccc(-c2nc(N)sc2C(=O)C(CC)CC)o1 (stereo partly shown) [Compound 5.1]	8%
CCOC(=O)COP(=O)(NC(C)(C)C(=O)OC(C)C)c1ccc(-c2nc(N)sc2C(=O)C(C)(C)C)o1 (stereo not shown) [Compound 5.7]	25%
CC(=O)SC1CCCCC1OP(=O)(OC1CCCCC1SC(C)=O)c1ccc(-c2nc(N)sc2C(=O)C(C)(C)C)o1 (stereo not shown) [Compound 6.8]	1%
CCC(C)(CC)C(=O)c1sc(N)nc1-c1ccc(P(=O)(N[C@@H](C)C(=O)OC(C)C)N[C@@H](C)C(=O)OC(C)C)o1 [Compound 2.11, 2-amino-5-(2-ethyl-2-methylbutyryl)-4-{[5-(N,N′-((S)-1-isopropyloxy-carbonyl)-ethyl)phosphonamido]furan-2-yl}thiazole]	13%
CCOC(=O)[C@H](C)NP(=O)(N[C@@H](C)C(=O)OCC)c1ccc(-c2nc(N)sc2C(=O)c2ccc(C)cc2)o1 [Compound 2.16, 2-amino-5-(4-methylbenzoyl)-4-{[5-(N,N′-((S)-1-ethyl-oxycarbonyl)ethyl)-phosphonamido]furan-2-yl}thiazole]	6%
CCOC(=O)[C@H](C)OP(=O)(NC(C)(C)C(=O)OCC)c1ccc(-c2nc(N)sc2C(=O)C(C)(C)C)o1 (stereo partly shown) [Compound 5.9]	10%
CCOC(=O)[C@H](C)NP(=O)(N[C@@H](C)C(=O)OCC)c1ccc(-c2nc(N)sc2C(=O)c2cccc(F)c2)o1 [Compound 2.19, 2-amino-5-(3-fluorobenzoyl)-4-{[5-(N,N′-((S)-1-ethyloxy-carbonyl)ethyl)-phosphonamido]furan-2-yl}thiazole]	16%
CCOC(=O)C(C)(C)NP(=O)(O[C@@H](C)C(=O)OC(C)C)c1ccc(-c2nc(N)sc2C(=O)C(C)(C)C)o1 (stereo partly shown) [Compound 5.10]	4%
CCOC(=O)C(C)(C)NP(=O)(NC(C)(C)C(=O)OCC)c1ccc(-c2nc(N)sc2C(=O)c2ccc(C)cc2)o1 [Compound 2.17]	10%
CCC(C)(C)C(=O)c1sc(N)nc1-c1ccc(P(=O)(NC(C)(C)C(=O)OC(C)C)NC(C)(C)C(=O)OC(C)C)o1 [Compound 2.8]	14%
CCOC(=O)COP(=O)(NC(C)(C)C(=O)OCC)c1ccc(-c2nc(N)sc2C(=O)C(CC)CC)o1 (stereo not shown) [Compound 5.12]	38%
